pIC50: −log10 of the molar value.
Each compound was assayed on JAK1-dependent STAT6 phosphorylation downstream of IL-13 stimulation in TF-1 human erythroleukemia cells (assay: cells). Details: TF-1, read-out: IL-13-pSTAT6 IC50.

SMILES	pIC50
CN1CCCCC1C1CCCN1C(=O)c1ccc(Nc2nc3c(N4CCC(O)(c5ccc(Cl)cc5)CC4)cccn3n2)cc1 (stereo not drawn) [Example 1-52, [4-[[8-[4-(4-chlorophenyl)-4-hydroxy-1-piperidyl]-[1,2,4]triazolo[1,5-a]pyridin-2-yl]amino]phenyl]-[2-(1-methyl-2-piperidyl)pyrrolidin-1-yl]methanone]	7.68
CC(=O)N1CC2(C1)CN(C(=O)c1ccc(Nc3nc4c(N5CCC(O)(c6ccc(Cl)cc6)CC5)cccn4n3)cc1)C2 [Example 1-53, 1-[2-[4-[[8-[4-(4-chlorophenyl)-4-hydroxy-1-piperidyl]-[1,2,4]triazolo[1,5-a]pyridin-2-yl]amino]benzoyl]-2,6-diazaspiro[3.3]heptan-6-yl]ethanone]	7.56
O=C(c1ccc(Nc2nc3c(N4CCC(O)(c5ccc(Cl)cc5)CC4)cccn3n2)cc1)N1CCN(C2CC2)CC1 [Example 1-54, [4-[[8-[4-(4-chlorophenyl)-4-hydroxy-1-piperidyl]-[1,2,4]triazolo[1,5-a]pyridin-2-yl]amino]phenyl]-(4-cyclopropylpiperazin-1-yl)methanone]	7.00
CN1CCC2(C1)CN(C(=O)c1ccc(Nc3nc4c(N5CCC(O)(c6ccc(Cl)cc6)CC5)cccn4n3)cc1)C2 [Example 1-59, [4-[[8-[4-(4-chlorophenyl)-4-hydroxy-1-piperidyl]-[1,2,4]triazolo[1,5-a]pyridin-2-yl]amino]phenyl]-(7-methyl-2,7-diazaspiro[3.4]octan-2-yl)methanone]	7.81
CN1CCCC12CN(C(=O)c1ccc(Nc3nc4c(N5CCC(O)(c6ccc(Cl)cc6)CC5)cccn4n3)cc1)C2 [Example 1-60, [4-[[8-[4-(4-chlorophenyl)-4-hydroxy-1-piperidyl]-[1,2,4]triazolo[1,5-a]pyridin-2-yl]amino]phenyl]-(5-methyl-2,5-diazaspiro[3.4]octan-2-yl)methanone]	7.91
CN1CCC(NC(=O)c2ccc(Nc3nc4c(N5CCC(O)(c6ccc(Cl)cc6)CC5)cccn4n3)cc2)C1 (stereo not drawn) [Example 1-62, 4-[[8-[4-(4-chlorophenyl)-4-hydroxy-1-piperidyl]-[1,2,4]triazolo[1,5-a]pyridin-2-yl]amino]-N-(1-methylpyrrolidin-3-yl)benzamide]	7.64
CN(C)C(=O)C1(c2ccncc2)CCCN1C(=O)c1ccc(Nc2nc3c(N4CCC(O)(c5ccc(Cl)cc5)CC4)cccn3n2)cc1 (stereo not drawn) [Example 1-74, 1-[4-[[8-[4-(4-chlorophenyl)-4-hydroxy-1-piperidyl]-[1,2,4]triazolo[1,5-a]-pyridin-2-yl]amino]benzoyl]-N,N-dimethyl-2-(4-pyridyl)pyrrolidine-2-carboxamide]	7.47
CN1C[C@@H]2CCN(C(=O)c3ccc(Nc4nc5c(N6CCC(O)(c7ccc(Cl)cc7)CC6)cccn5n4)cc3)[C@@H]2C1 [Example 1-76, [(3aS,6aS)-5-methyl-2,3,3a,4,6,6a-hexahydropyrrolo[2,3-c]pyrrol-1-yl]-[4-[[8-[4-(4-chlorophenyl)-4-hydroxy-1-piperidyl]-[1,2,4]triazolo[1,5-a]pyridin-2-yl]amino]phenyl] methanone]	7.90
CN1CCC2(CC1)CN(C(=O)c1ccc(Nc3nc4c(N5CCC(O)(c6ccc(Cl)cc6)CC5)cccn4n3)cc1)C2 [Example 1-81, [4-[[8-[4-(4-chlorophenyl)-4-hydroxy-1-piperidyl]-[1,2,4]triazolo[1,5-a]pyridin-2-yl]amino]phenyl]-(7-methyl-2,7-diazaspiro[3.5]nonan-2-yl)methanone]	7.96
CN(C)C1CCN(C(=O)c2ccc(Nc3nc4c(N5CCC(O)(c6ccc(Cl)cc6)CC5)cccn4n3)cc2)CC1 [Example 1-86, [4-[[8-[4-(4-chlorophenyl)-4-hydroxy-1-piperidyl]-[1,2,4]triazolo[1,5-a]pyridin-2-yl]amino]phenyl]-[4-(dimethylamino)-1-piperidyl]methanone]	7.67
O=C(N[C@H]1CN2CCC1CC2)c1ccc(Nc2nc3c(N4CCC(O)(c5ccc(Cl)cc5)CC4)cccn3n2)cc1 [Example 1-89, 4-[[8-[4-(4-chlorophenyl)-4-hydroxy-1-piperidyl]-[1,2,4]triazolo[1,5-a]pyridin-2-yl]amino]-N-[(3R)-quinuclidin-3-yl]benzamide]	6.90
CN1CC(NC(=O)c2ccc(Nc3nc4c(N5CCC(O)(c6ccc(Cl)cc6)CC5)cccn4n3)cc2)C1 [Example 1-92, 4-[[8-[4-(4-chlorophenyl)-4-hydroxy-1-piperidyl]-[1,2,4]triazolo[1,5-a]pyridin-2-yl]amino]-N-(1-methylazetidin-3-yl)benzamide]	7.23
O=C(NCCN1CCC(O)CC1)c1ccc(Nc2nc3c(N4CCC(O)(c5ccc(Cl)cc5)CC4)cccn3n2)cc1 [Example 1-95, 4-[[8-[4-(4-chlorophenyl)-4-hydroxy-1-piperidyl]-[1,2,4]triazolo[1,5-a]pyridin-2-yl]amino]-N-[2-(4-hydroxy-1-piperidyl)ethyl] benzamide]	6.94
CN1CCN(CCCNC(=O)c2ccc(Nc3nc4c(N5CCC(O)(c6ccc(Cl)cc6)CC5)cccn4n3)cc2)CC1 [Example 1-96, 4-[[8-[4-(4-chlorophenyl)-4-hydroxy-1-piperidyl]-[1,2,4]triazolo[1,5-a]pyridin-2-yl]amino]-N-[3-(4-methylpiperazin-1-yl)propyl]benzamide]	7.19
CN1CCN(CCNC(=O)c2ccc(Nc3nc4c(N5CCC(O)(c6ccc(Cl)cc6)CC5)cccn4n3)cc2)CC1 [Example 1-97, 4-[[8-[4-(4-chlorophenyl)-4-hydroxy-1-piperidyl]-[1,2,4]triazolo[1,5-a]pyridin-2-yl]amino]-N-[2-(4-methylpiperazin-1-yl)ethyl]benzamide]	7.60
O=C(NCCN1CCOCC1)c1ccc(Nc2nc3c(N4CCC(O)(c5ccc(Cl)cc5)CC4)cccn3n2)cc1 [Example 1-101, 4-[[8-[4-(4-chlorophenyl)-4-hydroxy-1-piperidyl]-[1,2,4]triazolo[1,5-a]pyridin-2-yl]amino]-N-(2-morpholinoethyl)benzamide]	7.85
CN1CCCCC1CNC(=O)c1ccc(Nc2nc3c(N4CCC(O)(c5ccc(Cl)cc5)CC4)cccn3n2)cc1 (stereo not drawn) [Example 1-103, 4-[[8-[4-(4-chlorophenyl)-4-hydroxy-1-piperidyl]-[1,2,4]triazolo[1,5-a]pyridin-2-yl]amino]-N-[(1-methyl-2-piperidyl)methyl]benzamide]	7.62
CN1CCC(NC(=O)c2ccc(Nc3nc4c(N5CCC(O)(c6ccc(Cl)cc6)CC5)cccn4n3)cc2)CC1 [Example 1-105, 4-[[8-[4-(4-chlorophenyl)-4-hydroxy-1-piperidyl]-[1,2,4]triazolo[1,5-a]pyridin-2-yl]amino]-N-(1-methyl-4-piperidyl)benzamide]	7.85
CN(Cc1ccncc1)C(=O)c1ccc(Nc2nc3c(N4CCC(O)(c5ccc(Cl)cc5)CC4)cccn3n2)cc1 [Example 1-111, 4-[[8-[4-(4-chlorophenyl)-4-hydroxy-1-piperidyl]-[1,2,4]triazolo[1,5-a]pyridin-2-yl]amino]-N-methyl-N-(4-pyridylmethyl)benzamide]	7.81
CN1CCN(C(=O)C2CCN(C(=O)c3ccc(Nc4nc5c(N6CCC(O)(c7ccc(Cl)cc7)CC6)cccn5n4)cc3)CC2)CC1 [Example 1-113, [4-[[8-[4-(4-chlorophenyl)-4-hydroxy-1-piperidyl]-[1,2,4]triazolo[1,5-a]pyridin-2-yl]amino]phenyl]-[4-(4-methylpiperazine-1-carbonyl)-1-piperidyl]methanone]	7.57
O=C(c1ccc(Nc2nc3c(N4CCC(O)(c5ccc(Cl)cc5)CC4)cccn3n2)cc1)N1CCCN(c2ccncc2)CC1 [Example 1-114, [4-[[8-[4-(4-chlorophenyl)-4-hydroxy-1-piperidyl]-[1,2,4]triazolo[1,5-a]pyridin-2-yl]amino]phenyl]-[4-(4-pyridyl)-1,4-diazepan-1-yl]methanone]	7.53
O=C(c1ccc(Nc2nc3c(N4CCC(O)(c5ccc(Cl)cc5)CC4)cccn3n2)cc1)N1CCN(CCn2ccnc2)CC1 [Example 1-116, [4-[[8-[4-(4-chlorophenyl)-4-hydroxy-1-piperidyl]-[1,2,4]triazolo[1,5-a]pyridin-2-yl]amino]phenyl]-[4-(2-imidazol-1-ylethyl)piperazin-1-yl]methanone]	7.47
O=C(c1ccc(Nc2nc3c(N4CCC(O)(c5ccc(Cl)cc5)CC4)cccn3n2)cc1)N1CCCCC1Cc1ccccn1 (stereo not drawn) [Example 1-121, [4-[[8-[4-(4-chlorophenyl)-4-hydroxy-1-piperidyl]-[1,2,4]triazolo[1,5-a]pyridin-2-yl]amino]phenyl]-[2-(2-pyridylmethyl)-1-piperidyl]methanone]	6.88
CN1CCCC(CNC(=O)c2ccc(Nc3nc4c(N5CCC(O)(c6ccc(Cl)cc6)CC5)cccn4n3)cc2)C1 (stereo not drawn) [Example 1-141, 4-[[8-[4-(4-chlorophenyl)-4-hydroxy-1-piperidyl]-[1,2,4]triazolo[1,5-a]pyridin-2-yl]amino]-N-[(1-methyl-3-piperidyl)methyl]benzamide]	7.24
CNC(=O)C1CN(C)CCN1C(=O)c1ccc(Nc2nc3c(N4CCC(O)(c5ccc(Cl)cc5)CC4)cccn3n2)cc1 (stereo not drawn) [Example 1-152, 1-[4-[[8-[4-(4-chlorophenyl)-4-hydroxy-1-piperidyl]-[1,2,4]triazolo[1,5-a]pyridin-2-yl]amino]benzoyl]-N,4-dimethyl-piperazine-2-carboxamide]	7.19
CN(C)C(=O)C1CN(C(=O)c2ccc(Nc3nc4c(N5CCC(O)(c6ccc(Cl)cc6)CC5)cccn4n3)cc2)C1 [Example 1-164, 1-[4-[[8-[4-(4-chlorophenyl)-4-hydroxy-1-piperidyl]-[1,2,4]triazolo[1,5-a]pyridin-2-yl]amino]benzoyl]-N,N-dimethyl-azetidine-3-carboxamide]	7.97
CN1CCN(C(=O)C2CN(C(=O)c3ccc(Nc4nc5c(N6CCC(O)(c7ccc(Cl)cc7)CC6)cccn5n4)cc3)C2)CC1 [Example 1-165, [4-[[8-[4-(4-chlorophenyl)-4-hydroxy-1-piperidyl]-[1,2,4]triazolo[1,5-a]pyridin-2-yl]amino]phenyl]-[3-(4-methylpiperazine-1-carbonyl)azetidin-1-yl]methanone]	7.60

Reference: patent publication US9873709B2 (priority 2013, dated 2018)
